Source: patent US7332495B2 (priority 2002, dated 2008)
Marks after values point to notes of the source that are not given here.

Tests used:
rat [1] = experiment: animal or person; conditions: Rattus norvegicus, po, read-out: Analgesia ED50
Description: Using 55° C. hot plate pain threshold detector (available from Ninghai Baishi Electronic Medical Instrument Co., Zheijiang, China) the threshold change before and after administration of a pharmaceutical composition of the present invention is tested. […] hind paw was scrubbed with alcohol cotton ball before the experiment. The regular pain threshold was tested twice for each rat, the induced hind paw licking time being recorded as the pain threshold. Measurements were made at 20-30 minute intervals. Only rats with stable pain reaction were used in the pharmaceutical test.
(§1) Two species of animals (mice and rats) and four types of pain testing models (i.p. 0.7% acetic acid, s.c. 5% formalin, hot plate 55° C., focused radiant heat) were used.

rat [2] = experiment: Rat 5% formalin paw s.c.; assay type: in vivo; conditions: p.o., read-out: Analgesia ED50
Description: as §1

Kunming mice = experiment: Mice writhing model (acetic acid); assay type: in vivo; conditions: Mus musculus, po; Mice; Acetic acid Writhing; read-out: Analgesia ED50
Description: Kunming mice were used, with a male-female ratio of 50-50%. The test compound is administered i.p. (20 mg/Kg body weight) to the test groups, and physiological saline is administered P.O. (20 ml/Kg body weight) to the control group. After 30 minutes, acetic acid (0.7%, […] i.p.) was injected and the number of writhes was observed during a 5-minute period after acetic acid administration. The inhibition ratio of the writhing threshold was calculated. The alternating current tube is used to record the spontaneous activities for measuring sedation.
as §1

rat [3] = experiment: Rat tail flick model (focused radiant heat); assay type: in vivo; conditions: po, read-out: Analgesia ED50
Mice [4] = experiment: Mice 55° C. hot plate; assay type: in vivo; conditions: Mus musculus, po, read-out: Analgesia ED50
Description: as §1

rats [5] = experiment: Spontaneous withdrawal tests (body weight); assay type: in vivo; conditions: Morphine group
Description: 96 mice were divided into 4 groups (24 for each group, ? fifty-fifty), and Morphine, IV-12-1, IV-12-2, warm boiled water were administered respectively, using progressive dose increase for 7 days (i.g.) and 2 times per day. The weight of the rats after drug withdrawal was compared with the weight one day before drug withdrawal at a corresponding time (See Table 9 and 10).

rats [6] = experiment: Precipitated withdrawal test in rats; assay type: in vivo; conditions: Morphine group
Description: 48 rats were divided into 4 groups (12 for each group, ? fifty-fifty). Morphines IV-12-1 (75 mg/Kg), IV-12-2 (100 mg/Kg) and saline, was administered respectively using progressive dose increase for 14 days and 3 times per day. On the 15th day, Narcan is injected (i.p. 4 mg/kg) to precipitate withdrawal. The withdrawal syndrome was observed and the rats wre weighed at 30, 60 and 120 minutes after the injection respectively.

rats [7] = experiment: Spontaneous withdrawal tests (body weight); assay type: in vivo; conditions: Morphine group; remark: listed apart in the source
rats [8] = experiment: Conditional position preference in rats; conditions: Morphine group, i.g.
Excerpt: A commercially available device for testing (Med Associates Inc.) was used. Measurements were automatically recorded by a computer.
The data are indicated by means of […], t-test was employed to compare the data in different groups. The rats were divided randomly into groups by weight, 12 for each group. They were positive control groups. […] The experiments were divided into stages of accommodation, training and test. Accommodation: Open the doors between black box and grey box and the door between white box and grey box. put the rats in from the grey box; let them run free in the training box for 15 minutes for 4 days. Training: The white box is with medicine while the black one is without it. The period training is 10 days, the first day with the medicine while the second day not; the third day with the medicine while the fourth day not, so on and so forth. When carrying out the training with medicine, 15 minutes after the rat is administrated (i.g.) with medicine, it is put into the white box for 30 minutes. When the training is without medicine, 15 minutes after the rat is administrated (i.g.) with saline, it is put into the black box for 30 minutes. Test: On the 11th day, the rat is put into the training box, with the door open. The time the rat stays in each box, and the number of time it enters during 15 minutes were determined, and the percentage of the time staying in the white box to the time together in white box and black box is calculated (Table 12).

Mice [9] = experiment: Jumping test in mice (Narcan precipitated); assay type: in vivo; conditions: Morphine group
Description: Sixty-four mice were divided into 4 groups (16 for each group, ? fifty-fifty) Morphine, IV-12-1 (75 mg/Kg) IV-12-2 (100 mg/Kg) and saline were administrated respectively 3 times per day for 7 days with progressive dose increase. On the 7th day, Narcan is injected (i.p. 2 mg/kg) to precipitate withdrawal. The number of times for the mice to jump was recorded and the incidence of the jump calculated.

In the case of `CC(=O)Oc1ccccc1C(=O)O` [Aspirin, reference compound], the ED50 (rat [1]) is reported as 843 mg/kg, the ED50 (rat [2]) is reported as 2310 mg/kg and the ED50 (Kunming mice) is reported as 348 mg/kg. The ED50 (rat [3]) was greater than 5000 mg/kg.
`CN1CC[C@]23c4c5ccc(O)c4O[C@H]2[C@@H](O)C=C[C@H]3[C@H]1C5` [Morphine, reference compound] was tested, and the ED50 (rat [1]) was 107 mg/kg, the ED50 (Mice [4]) was 7.7 mg/kg and the “Increase (%) of weight” value (rats [5]; 114 h after withdrawal) was −4.7%. The “Weight” value (rats [5]; 144 h after withdrawal) was 282.0 ± 41 g, the “Weight after withdrawal compared with weight one day before withdrawal” value (rats [5]; ♀, 114 h after withdrawal) was 0.97 ± 0.03 and the “Weight after withdrawal compared with weight one day before withdrawal” value (rats [5]; ♂, 18 h after withdrawal) was 0.97 ± 0.04. The ED50 (Kunming mice) was 6.8 mg/kg, the “Percent of the lost weight (IV ± SD)” value (rats [6]; 30 min after Narcan) was −5.1 ± 0.7 and the “Percent of the lost weight (IV ± SD)” value (rats [6]; 60 min after Narcan) was −5.9 ± 1.0. For the same compound, the “Percent of the lost weight (IV ± SD)” value (rats [6]; 120 min after Narcan) was −7.0 ± 0.7, the “Abstinence syndrome (IV ± SD)” value (rats [6]; 14 days, Narcan i.p. 4 mg/kg) was 9.2 ± 2.8 and the “Greatest decrease of weight after drug withdrawal” value (rats [7]) was 10%. The “Increase (%) of weight” value (rats [7]; 12 h after withdrawal) was −0.5%, the “Weight” value (rats [7]; 12 h after withdrawal) was 284.7 ± 40 g and the “Increase (%) of weight” value (rats [7]; 18 h after withdrawal) was −3.2%. For the same compound, the “Weight” value (rats [7]; 18 h after withdrawal) was 276.9 ± 39 g, the “Increase (%) of weight” value (rats [7]; 24 h after withdrawal) was −6.4% and the “Weight” value (rats [7]; 24 h after withdrawal) was 267.9 ± 37 g. The “Increase (%) of weight” value (rats [7]; 36 h after withdrawal) was −8.2%, the “Weight” value (rats [7]; 36 h after withdrawal) was 262.7 ± 37 g and the “Increase (%) of weight” value (rats [7]; 42 h after withdrawal) was −9.7%. The “Weight” value (rats [7]; 42 h after withdrawal) was 258.4 ± 35 g, the “Increase (%) of weight” value (rats [7]; 48 h after withdrawal) was −10.2% and the “Weight” value (rats [7]; 48 h after withdrawal) was 257.0 ± 33 g. The “Increase (%) of weight” value (rats [7]; 60 h after withdrawal) was −10.3%, the “Weight” value (rats [7]; 60 h after withdrawal) was 256.6 ± 31 g and the “Increase (%) of weight” value (rats [7]; 66 h after withdrawal) was −10.5%. For the same compound, the “Weight” value (rats [7]; 66 h after withdrawal) was 256.0 ± 34 g, the “Increase (%) of weight” value (rats [7]; 72 h after withdrawal) was −9.0% and the “Weight” value (rats [7]; 72 h after withdrawal) was 260.4 ± 36 g. The “Increase (%) of weight” value (rats [7]; 84 h after withdrawal) was −6.1%, the “Weight” value (rats [7]; 84 h after withdrawal) was 268.7 ± 37 g and the “Increase (%) of weight” value (rats [7]; 90 h after withdrawal) was −7.5%. The “Weight” value (rats [7]; 90 h after withdrawal) was 264.7 ± 37 g, the “Increase (%) of weight” value (rats [7]; 96 h after withdrawal) was −6.0% and the “Weight” value (rats [7]; 96 h after withdrawal) was 269.0 ± 40 g. The “Increase (%) of weight” value (rats [7]; 108 h after withdrawal) was −3.0%, the “Weight” value (rats [7]; 108 h after withdrawal) was 277.6 ± 38 g and the “Weight” value (rats [7]; 114 h after withdrawal) was 272.9 ± 38 g. The “Increase (%) of weight” value (rats [7]; 120 h after withdrawal) was −3.8%, the “Weight” value (rats [7]; 120 h after withdrawal) was 275.4 ± 40 g and the “Increase (%) of weight” value (rats [7]; 132 h after withdrawal) was −0.5%. The “Weight” value (rats [7]; 132 h after withdrawal) was 284.6 ± 38 g, the “Increase (%) of weight” value (rats [7]; 138 h after withdrawal) was −2.4% and the “Weight” value (rats [7]; 138 h after withdrawal) was 279.3 ± 38 g. For the same compound, the “Increase (%) of weight” value (rats [7]; 144 h after withdrawal) was −1.5%, the “Increase (%) of weight” value (rats [7]; 156 h after withdrawal) was 1.7% and the “Weight” value (rats [7]; 156 h after withdrawal) was 291.0 ± 40 g. For the same compound, the “Increase (%) of weight” value (rats [7]; 162 h after withdrawal) was −0.6%, the “Weight” value (rats [7]; 162 h after withdrawal) was 284.2 ± 40 g and the “Increase (%) of weight” value (rats [7]; 168 h after withdrawal) was 0.1%. For the same compound, the “Weight” value (rats [7]; 168 h after withdrawal) was 286.5 ± 42 g, the “Weight” value (rats [7]; before withdraw) was 286.2 ± 40 g and the “Weight after withdrawal compared with weight one day before withdrawal” value (rats [7]; ♀, 18 h after withdrawal) was 0.98 ± 0.03. The “Weight after withdrawal compared with weight one day before withdrawal” value (rats [7]; ♀, 42 h after withdrawal) was 0.92 ± 0.02, the “Weight after withdrawal compared with weight one day before withdrawal” value (rats [7]; ♀, 66 h after withdrawal) was 0.91 ± 0.02 and the “Weight after withdrawal compared with weight one day before withdrawal” value (rats [7]; ♀, 90 h after withdrawal) was 0.94 ± 0.02. For the same compound, the “Weight after withdrawal compared with weight one day before withdrawal” value (rats [7]; ♀, 138 h after withdrawal) was 1.00 ± 0.03, the “Weight after withdrawal compared with weight one day before withdrawal” value (rats [7]; ♀, 162 h after withdrawal) was 1.01 ± 0.03 and the “Weight after withdrawal compared with weight one day before withdrawal” value (rats [7]; ♂, 42 h after withdrawal) was 0.91 ± 0.03. For the same compound, the “Weight after withdrawal compared with weight one day before withdrawal” value (rats [7]; ♂, 66 h after withdrawal) was 0.90 ± 0.03, the “Weight after withdrawal compared with weight one day before withdrawal” value (rats [7]; ♂, 90 h after withdrawal) was 0.94 ± 0.03 and the “Weight after withdrawal compared with weight one day before withdrawal” value (rats [7]; ♂, 114 h after withdrawal) was 0.97 ± 0.03. For the same compound, the “Weight after withdrawal compared with weight one day before withdrawal” value (rats [7]; ♂, 138 h after withdrawal) was 0.99 ± 0.04, the “Weight after withdrawal compared with weight one day before withdrawal” value (rats [7]; ♂, 162 h after withdrawal) was 1.01 ± 0.04 and the ED50 (rat [3]) was 23.3 mg/kg. The “Percent in the medicine box (%)” value (rats [8]) was 62.0 ± 8.0 %, the “Incidence for jump (%)” value (Mice [9]) was 87.5* % and the “Times for jump (IV ± SD)” value (Mice [9]; 3 times per day for 7 days, Narcan i.p. 2 mg/kg) was 68 ± 43.
